One assay relates to Enterococcus faecium. The assay is described as follows: MIC, broth microdilution method (NCCLS M7-A5). The class given is cell-based. Conditions: 568 Enterococcus faecium cl.isol. In general terms: In broth dilution the organism is exposed to a series of concentrations in liquid medium.

For orientation: MIC means the lowest concentration found to suppress growth. Low values mean inhibition by little substance, high ones a need for much substance.

In brackets after ≈: the same amount, converted by molar mass.

Consider `C=C1NC(=O)C(Cc2c[nH]c3ccc(Cl)cc23)NC(=O)C(NC(=O)C(=CC)NC(=O)C(N)C(C)C)CSCC(C(=O)NC2C(=O)N3CCCC3C(=O)NCC(=O)NC(C(=O)NC(C(=O)NC3CSCC4NC(=O)C(CC(N)=O)NC(=O)C(CSCC5NC(=O)C(Cc6ccccc6)NC(=O)C(CS/C=C\NC5=O)NC4=O)NC(=O)CNC(=O)CNC(=O)CNC(=O)C4CC(O)CN4C3=O)C(C)O)CSC2C)NC(=O)C(CC(C)C)NC1=O` (stereo not drawn) [Factor A2], for which the MIC in the assay with Staph. haemolyticus was 0,25 µg/ml; against Enterococcus faecium, 2 µg/mL (≈ 0.896 µM).
As for `C=C1NC(=O)C(Cc2c[nH]c3ccc(Cl)cc23)NC(=O)C(NC(=O)C(=CC)NC(=O)C(N)C(C)C)CSCC(C(=O)NC2C(=O)N3CCCC3C(=O)NCC(=O)NC(C(=O)NC(C(=O)NC3CSCC4NC(=O)C(CC(N)=O)NC(=O)C(CSCC5NC(=O)C(Cc6ccccc6)NC(=O)C(CS/C=C\NC5=O)NC4=O)NC(=O)CNC(=O)CNC(=O)CNC(=O)C4C(O)C(O)CN4C3=O)C(C)O)CSC2C)NC(=O)C(CC(C)C)NC1=O` (stereo not drawn) [Factor A1], in the assay with Staph. haemolyticus, the minimal inhibitory concentration (MIC) is recorded as 0,25 µg/ml.

For the origin of these results see patent EP1855705B1, “ANTIBIOTIC 107891, ITS FACTORS, PHARMACEUTICALLY ACCEPTABLE SALTS AND COMPOSITIONS, AND USE THEREOF” (Sentinella Pharmaceuticals, Inc. ("Sentinella"), priority 2005, dated 2006).
